Data as given in ChEMBL document CHEMBL1136679, “Phenylacetic acid derivatives as hPPAR agonists” (Bioorg Med Chem Lett, 2003).

How the values were obtained:
Mus musculus [1] = species: Mus musculus; format: functional, Plasma; conditions: at 100 mg/kg/day
Rattus norvegicus [2] = species: Rattus norvegicus; format: functional, Plasma; conditions: at 100 mg/kg/day
in vivo [3] = conditions: male, Sprague-Dawley, rat, iv
in vivo [4] = conditions: male, Sprague-Dawley, rat, iv; remark: listed apart in the source
in vivo [5] = conditions: male, Sprague-Dawley, rat, po, 10 mg/kg
[6] = target: T1, Peroxisome proliferator-activated receptor alpha (Homo sapiens, UniProt Q07869)
T1 sequence (Q07869 whole entry): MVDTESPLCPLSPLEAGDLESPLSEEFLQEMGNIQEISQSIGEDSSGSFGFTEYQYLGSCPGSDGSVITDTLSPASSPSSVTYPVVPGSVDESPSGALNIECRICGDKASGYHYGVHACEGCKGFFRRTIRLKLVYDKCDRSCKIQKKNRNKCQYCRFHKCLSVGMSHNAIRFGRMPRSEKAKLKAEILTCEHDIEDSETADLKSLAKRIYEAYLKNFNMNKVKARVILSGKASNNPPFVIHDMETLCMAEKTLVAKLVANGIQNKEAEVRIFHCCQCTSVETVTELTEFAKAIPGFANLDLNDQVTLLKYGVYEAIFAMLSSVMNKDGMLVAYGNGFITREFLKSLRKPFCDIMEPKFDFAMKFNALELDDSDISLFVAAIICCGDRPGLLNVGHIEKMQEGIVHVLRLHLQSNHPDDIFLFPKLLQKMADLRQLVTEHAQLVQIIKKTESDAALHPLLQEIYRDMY

Rattus norvegicus [7] = species: Rattus norvegicus; format: functional, Plasma; conditions: at 30 mg/kg/day
[8] = target: T1, Peroxisome proliferator-activated receptor alpha; remark: listed apart in the source
Rattus norvegicus [9] = species: Rattus norvegicus; format: functional, Plasma; conditions: at 30 mg/kg/day; remark: listed apart in the source
Rattus norvegicus [10] = species: Rattus norvegicus; format: functional, Plasma; conditions: at 30 mg/kg/day; remark: listed apart in the source
Rattus norvegicus [11] = species: Rattus norvegicus; format: functional, Plasma; conditions: at 100 mg/kg/day; remark: listed apart in the source
Rattus norvegicus [12] = species: Rattus norvegicus; format: functional, Plasma; conditions: at 100 mg/kg/day; remark: listed apart in the source
Mus musculus [13] = species: Mus musculus; format: functional, Plasma; conditions: at 100 mg/kg/day; remark: listed apart in the source
Mus musculus [14] = species: Mus musculus; format: functional, Plasma; conditions: at 10 mg/kg/day
Mus musculus [15] = species: Mus musculus; format: functional, Plasma; conditions: at 10 mg/kg/day; remark: listed apart in the source
Rattus norvegicus [16] = species: Rattus norvegicus; format: functional, Plasma; conditions: at 10 mg/kg/day
Rattus norvegicus [17] = species: Rattus norvegicus; format: functional, Plasma; conditions: at 10 mg/kg/day; remark: listed apart in the source
Rattus norvegicus [18] = species: Rattus norvegicus; format: functional, Plasma; conditions: at 10 mg/kg/day; remark: listed apart in the source
[19] = target: T2, Peroxisome proliferator-activated receptor delta (Homo sapiens, UniProt Q03181)
T2 sequence (Q03181 whole entry): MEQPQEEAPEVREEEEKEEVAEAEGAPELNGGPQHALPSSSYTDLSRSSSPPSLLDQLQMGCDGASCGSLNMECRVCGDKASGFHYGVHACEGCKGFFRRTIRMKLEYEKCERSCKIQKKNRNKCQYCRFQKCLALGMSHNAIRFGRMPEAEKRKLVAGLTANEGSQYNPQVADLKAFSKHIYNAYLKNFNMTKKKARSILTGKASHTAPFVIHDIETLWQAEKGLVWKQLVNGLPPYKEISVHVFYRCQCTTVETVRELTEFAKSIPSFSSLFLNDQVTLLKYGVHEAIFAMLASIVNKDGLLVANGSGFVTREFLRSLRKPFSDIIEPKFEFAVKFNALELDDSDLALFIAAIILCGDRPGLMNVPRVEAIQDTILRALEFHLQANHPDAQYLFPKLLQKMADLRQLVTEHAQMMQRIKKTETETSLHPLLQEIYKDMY

[20] = target: T2, Peroxisome proliferator-activated receptor delta; remark: listed apart in the source
Mus musculus [21] = species: Mus musculus; format: functional, Plasma; conditions: at 30 mg/kg/day
Mus musculus [22] = species: Mus musculus; format: functional, Plasma; conditions: at 30 mg/kg/day; remark: listed apart in the source
Mus musculus [23] = species: Mus musculus; conditions: Plasma
Mus musculus [24] = species: Mus musculus; format: functional, Plasma; conditions: at 3 mg/kg/day
Rattus norvegicus [25] = species: Rattus norvegicus; format: functional, Plasma; conditions: at 30 mg/kg/day; remark: listed apart in the source
Rattus norvegicus [26] = species: Rattus norvegicus; format: functional, Plasma; conditions: at 3 mg/kg/day
Mus musculus [27] = species: Mus musculus; format: functional, Plasma; conditions: at 30 mg/kg/day; remark: listed apart in the source
Rattus norvegicus [28] = species: Rattus norvegicus; format: functional, Plasma; conditions: at 30 mg/kg/day; remark: listed apart in the source
Rattus norvegicus [29] = species: Rattus norvegicus; format: functional, Plasma; conditions: at 3 mg/kg/day; remark: listed apart in the source
Rattus norvegicus [30] = species: Rattus norvegicus; format: functional, Plasma; conditions: at 3 mg/kg/day; remark: listed apart in the source
Mus musculus [31] = species: Mus musculus; format: functional, Plasma; conditions: at 30 mg/kg/day; remark: listed apart in the source
Mus musculus [32] = species: Mus musculus; format: functional, Plasma; conditions: at 3 mg/kg/day; remark: listed apart in the source
Rattus norvegicus [33] = species: Rattus norvegicus; conditions: in vivo, po, 10 mg/kg

| SMILES | half-life (in vivo [3]) [h] | clearance (in vivo [4]) [mL/min/kg] | bioavailability (in vivo [5]) [%] | EC50 ([6]; read-out: EC50) [nM] | Dec (Rattus norvegicus [7]) [%] | IC50 [8] [nM] | Dec (Rattus norvegicus [9]) [%] | Corr (Rattus norvegicus [10]) [%] | Dec (Mus musculus [14]) [%] | Corr (Mus musculus [15]) [%] | Corr (Rattus norvegicus [16]) [%] | Dec (Rattus norvegicus [17]) [%] | Dec (Rattus norvegicus [18]) [%] | EC50 [19] [nM] | IC50 [20] [nM] | further results |
| --- | --- | --- | --- | --- | --- | --- | --- | --- | --- | --- | --- | --- | --- | --- | --- | --- |
| CCCc1c(OCCCSc2ccc(CC(=O)O)cc2Cl)ccc2c(CC)noc12 [L-165461] | 1 | 17.6 | 50 | 247 | 42 | 570 | -14 | 29 |  |  |  |  |  |  |  | Corr (Mus musculus [1]): 33%; Corr (Rattus norvegicus [2]): 66%; Dec (Rattus norvegicus [11]): 70%; Dec (Rattus norvegicus [12]): 52%; Dec (Mus musculus [13]): 67% |
| CN(CCOc1ccc(CC2SC(=O)NC2=O)cc1)c1ccccn1 (stereo not given) [ROSIGLITAZONE] |  |  |  |  | 94 |  | 86 | 109 | 75 | 65 | 99 | 78 | 54 |  |  | EC50 [6]: Not Active |
| CCCc1c(OCCCSc2ccc(CC(=O)O)cc2Cl)ccc(C(C)=O)c1O |  |  |  | 1600 |  | 7400 |  |  |  |  |  |  |  | 80 | 20 |  |
| CCCc1c(OCCCSc2ccc(CC(=O)O)cc2Cl)ccc(/C(CC)=N/O)c1O | 2.8 | 5.7 | 33 | 74 | 65 | 100 | 15 | 44 |  |  |  |  |  | 9 | 10 | Corr (Rattus norvegicus [2]): 89%; Dec (Rattus norvegicus [11]): 80%; Dec (Rattus norvegicus [12]): 54% |
| CCCc1c(OCCCSc2ccc(CC(=O)O)cc2Cl)ccc2c(-c3ccccc3)coc12 [L-796449] | 2.1 |  | 84 | 18 | 66 | 54 | 88 | 56 | 72 | 77 | 27 | 13 | 67 |  |  | Corr (Mus musculus [21]): 94%; Dec (Mus musculus [22]): 86%; CL (mL.min-1.kg-1) (Mus musculus [23]): 3.3 |
| CCCc1c(OCCCSc2ccc(CC(=O)O)cc2Cl)ccc2c(C(F)(F)F)noc12 | 4.7 | 2.6 | 100 | 125 |  | 310 |  | 95 | 46 | 71 | 83 | -53 | 52 | 5 | 10 | Dec (Mus musculus [24]): 46%; Dec (Rattus norvegicus [25]): -65%; Dec (Rattus norvegicus [26]): -34%; Dec (Mus musculus [27]): 81%; Dec (Rattus norvegicus [28]): 74%; Corr (Rattus norvegicus [29]): 18%; Dec (Rattus norvegicus [30]): 45%; Corr (Mus musculus [31]): 96%; Corr (Mus musculus [32]): 30%; nAUC (Rattus norvegicus [33]): 2520 ng·h/mL |
| CCCc1c(OCCCSc2ccc(CC(=O)O)cc2Cl)ccc(C(=O)CC)c1O |  |  |  | 260 |  | 600 |  |  |  |  |  |  |  | 10 | 20 |  |
| CCCc1c(OCCCSc2ccc(CC(=O)O)cc2Cl)ccc2c(CC)coc12 |  |  |  | 1300 |  | 1730 |  |  |  |  |  |  |  |  |  | Corr (Mus musculus [21]): 74%; Dec (Mus musculus [22]): 60% |
